Measured values reported in US20250064990A1, “METHODS OF SCREENING FOR VMAT2 INHIBITORS” (Neurocrine Biosciences, Inc., priority 2021, published 2025).
“And” between values parts separate entries of the source, which are not always exact repeats. Identical values can stand only once. Like-named read-outs stand apart in the source and are kept apart here. Each block holds one molecule with its values, some of them ahead of it.

What was measured:
[1] = NBI-98782 concentration in cynomolgus monkey plasma by LC-MS/MS; assay type: in vivo, cynomolgus monkeys (Macaca fascicularis)
Method: During each scan, whole blood PK samples were collected (in K2 EDTA tubes) at pre-dose (−5 min), and post-dose at 4 (approximately 1 min after completion of bolus), 30, 60 (just prior to [^18F]AV-133 radiopharmaceutical administration), 90, 120, 150, 180 (end of scan) minutes after test article administration. PK samples were approximately 1 mL each (8 mL total, including pre-dose sample).
Plasma samples were processed using liquid-liquid extraction with the additional of a stable isotopic labeled internal standard ^13C-83198. Processed samples were chromatographically separated on a C18 reversed phase column and coupled to a Sciex API 4000 triple quadrupole mass spectrometer for detection.
Quantitation was performed using a weighted 1/×2 linear least squares regression analysis generated from calibration standards prepared on the day of extraction. The liquid-liquid extraction began with the addition of internal standard solution (10.0 μL of approximately 400 ng/mL of [^13C]-radiolabeled [^13C]-NBI-98854 (i.e., [^13C]-valbenazine) and [^13C]-NBI-83198 (a racemic mixture of two dihydrotetrabenazine enantiomers). After adding 50.0 μL of sodium carbonate solution (0.2 M) and 2.00 mL of methyl tert-butyl ether to all samples, the tubes were sealed, vortexed, and centrifuged. Subsequently, the organic layer was transferred to clean tubes and evaporated to dryness. The samples were then reconstituted with 150 μL of reconstitution solution (water/methanol/acetic acid; 80:20:0.2), sealed, vortexed, sonicated and centrifuged. The reconstituted extract was then transferred into a 96-well plate. […] A triple quadrupole mass spectrometer (Sciex API 4000) equipped with TurboIonSpray source was used in the positive ion mode.

VMAT2 [2] = target: VMAT2 (Macaca fascicularis, UniProt A0A2K5UVB8); test: VMAT2 occupancy in NHP brain after i.v. NBI-98782, [^18F]AV-133 PET; assay type: in vivo, cynomolgus monkeys (Macaca fascicularis); conditions: cynomolgus monkey
Source text: A radioligand, [^18F]AV-133, has been used to image and quantify brain VMAT2 in vivo.
Two female non-naïve cynomolgus monkeys (Macaca fascicularis) were used in this study. The animals were judged to be in good health before the start of the study. At study origination, animals A7701 (Tag ID A5028) and A7702 (Tag ID A5029) were 4.45 kg/4 years 11 months and 4.75 kg/3 years 10 months, respectively.
Dynamic data were acquired in the MicroPET Focus-220 camera (Siemens Microsystems, Knoxville, TN). Emission data were collected for 120 min post-injection and reconstructed into a series of 33 frames and all standard corrections were applied: normalization, random, scatter and attenuation (via CT scan). Dynamic brain PET images were transferred and analyzed using the image processing PMOD software package v3.802 (PMOD Technologies, Zurich, Switzerland). The PET images were rigidly aligned to a previously acquired animal's brain T1 MRI and then spatially normalized to a common cynomolgus MRI template for anatomical brain region definition.
Volumes of interest (VOIs) defined in the cynomolgus template space (see e.g., Ballanger et al. Neuroimage, 2013, 77:26-43) were applied to the spatially normalized PET images to compute time-activity curves (TACs, kBq/cm^3) for caudate (0.96 cm^3), putamen (1.34 cm^3) and occipital (8.61 cm^3). TACs and images (averaged between 90-120 min) were presented in Standard Uptake Value (SUV) units (g/mL) normalized by the weight of the animal and the injected dose
Non-invasive Logan graphical analysis (start time of fit, t*=30 min) was used to estimate regional non-displaceable binding potential (BPND) using the TACs in the caudate and putamen, with the cerebellar cortex as the reference TAC. […] Target occupancy was calculated according to the Equation 2-1.
where h is the Hill slope (h=1.0) and C is the mean of observed plasma concentrations during the scanning interval (60 to 180 minutes post-dose).

VMAT2 [3] = target: T1, VMAT2 (Homo sapiens, UniProt Q05940); conditions: Freeby et al., Mol. Imaging Biol. 2016; cited from earlier work
VMAT2 [4] = test: Estimated VMAT2 target occupancy and clinical observations in cynomolgus monkey; assay type: in vivo; conditions: ~30 min to 1 h post-dosing, at estimated 96%-98% VMAT2 target occupancy
Source text: As described below, there were adverse events at these doses, enabling a benchmarking of % TO values that could lead to adverse events.

VMAT2 [5] = target: T1, VMAT2; test: Estimated VMAT2 target occupancy in humans for valbenazine from NHP PET free EC50 and human PK; assay type: in vivo; parameters: The free EC50 derived from NHP PET was then used to estimate % TO in humans; from tissue; host or cells: human brain in vivo (modelled, not imaged)
[6] = Adverse events in healthy volunteers receiving valbenazine; assay type: in vivo, human; conditions: 40-160 mg valbenazine
Method: Interim imaging and tolerability data in an ongoing study were collected and analyzed in cohorts of 2-4 healthy volunteers. For each scan, participants received an injection of the D2/D3 dopamine receptor agonist radioligand [^11C](+)4-propyl-3,4,4a,5,6,10b-hexahydro-2H-naphtho[1,2-b][1,4]oxazin-9-ol ([^11C]-PHNO), followed by 90 min of data acquisition using Siemens Biograph PET/CT. For post-valbenazine scans, participants received an oral dose of valbenazine 6-8 hours before the administration of [^11C]-PHNO, with PET imaging occurring around the time of maximal valbenazine plasma concentration. The binding potential relative to the non-displaceable binding (BPND) in the putamen, caudate, and ventral striatum, was used as the primary endpoint. The cerebellum was used as the reference region to estimate the regional BPND. Decreases in synaptic dopamine following valbenazine administration corresponded to an increase in [^11C]-PHNO BPND relative to baseline (ΔBPND). Plasma concentrations of valbenazine and (+)-α-dTBZ (dihydrotetrabenazine), the active metabolite of valbenazine, were measured at the start and end of each post-valbenazine PET scan. The mean plasma (+)-α-dTBZ concentration (Cave) was matched to the ΔBPND for each participant to provide an exposure-response curve.

synaptic dopamine = test: Valbenazine effects on the dopamine system, [^11C]-PHNO PET; assay type: in vivo, human; conditions: 40-160 mg oral valbenazine, healthy volunteers, interim analysis, eight participants
Source text: By way of example only, in some embodiments, “synaptic dopamine” can be measured non-invasively as follows. Subjects receive an oral dose of a VMAT2 inhibitor before administration of [^11C]-PHNO, with PET imaging occurring around the time of maximal VMAT2 inhibitor plasma concentration. The binding potential relative to the non-displaceable binding (BPND) in the putamen, caudate, and ventral striatum, is used as the primary endpoint. The cerebellum is used as the reference region to estimate the regional BPND. The measured increases in [^11C]-PHNO BPND relative to baseline (ΔBPND) correspond to decreases in synaptic dopamine following VMAT2 inhibitor administration. Other radioligands can be used. Alternatively, in some embodiments, indirect measurements of synaptic dopamine can be achieved via invasive techniques such as methods described in Huang M., et al., Pharmacology, Biochemistry and Behavior 190 (2020) 172872; and Bosche S. L., et al., Frontiers in Neuroscience, November 2021|Volume 15|Article 728092.
Interim imaging and tolerability data in an ongoing study were collected and analyzed in cohorts of 2-4 healthy volunteers. […] Plasma concentrations of valbenazine and (+)-α-dTBZ (dihydrotetrabenazine), the active metabolite of valbenazine, were measured at the start and end of each post-valbenazine PET scan. […]

Sequence of VMAT2 (Macaca fascicularis, UniProt A0A2K5UVB8) (A0A2K5UVB8 entry or part of it): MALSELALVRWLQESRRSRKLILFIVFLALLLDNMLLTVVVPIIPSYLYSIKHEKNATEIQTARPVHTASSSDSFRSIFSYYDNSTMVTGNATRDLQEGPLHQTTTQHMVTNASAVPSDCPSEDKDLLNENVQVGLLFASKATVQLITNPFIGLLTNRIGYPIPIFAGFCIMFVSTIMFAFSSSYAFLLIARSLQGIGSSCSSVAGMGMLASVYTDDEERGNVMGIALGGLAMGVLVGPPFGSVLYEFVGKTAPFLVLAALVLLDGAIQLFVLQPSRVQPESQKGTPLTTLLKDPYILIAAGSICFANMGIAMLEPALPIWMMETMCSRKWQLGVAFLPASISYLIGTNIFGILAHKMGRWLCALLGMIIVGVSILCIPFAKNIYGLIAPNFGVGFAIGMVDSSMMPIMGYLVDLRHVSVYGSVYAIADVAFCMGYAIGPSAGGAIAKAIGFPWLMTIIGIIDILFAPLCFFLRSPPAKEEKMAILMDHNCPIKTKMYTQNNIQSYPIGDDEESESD
T1 sequence (Q05940 whole entry): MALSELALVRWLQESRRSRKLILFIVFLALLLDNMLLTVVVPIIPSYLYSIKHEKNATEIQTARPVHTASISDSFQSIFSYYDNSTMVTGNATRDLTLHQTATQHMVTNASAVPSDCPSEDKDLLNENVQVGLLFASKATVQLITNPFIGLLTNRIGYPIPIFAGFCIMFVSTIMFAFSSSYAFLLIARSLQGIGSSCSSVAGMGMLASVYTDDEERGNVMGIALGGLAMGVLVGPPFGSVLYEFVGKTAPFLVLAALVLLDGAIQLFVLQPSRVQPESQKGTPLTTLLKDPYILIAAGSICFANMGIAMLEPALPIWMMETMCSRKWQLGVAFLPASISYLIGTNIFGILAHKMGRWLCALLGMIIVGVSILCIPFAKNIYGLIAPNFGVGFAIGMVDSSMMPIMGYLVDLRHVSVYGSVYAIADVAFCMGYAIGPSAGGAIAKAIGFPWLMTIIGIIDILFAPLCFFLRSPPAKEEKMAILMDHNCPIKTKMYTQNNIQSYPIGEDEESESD

Structure (SMILES): COc1cc2c(cc1OC)[C@H]1C[C@@H](O)[C@H](CC(C)C)CN1CC2 [NBI-98782, (2R, 3R,11bR)-3-isobutyl-9,10-dimethoxy-1,3,4,6,7,11b-hexahydro-2H-pyrido[2,1-a]isoquinolin-2-ol]
Mean ng/mL NBI-98782 Concentration during PET Scan (60-180 min) ([1]; A7701, total mass dose 0.04 mg/kg i.v.): 2.9 ng/mL
Mean ng/mL NBI-98782 Concentration during PET Scan (60-180 min) ([1]; A7701, total mass dose 0.5 mg/kg i.v.): 44.5 ng/mL
Mean ng/mL NBI-98782 Concentration during PET Scan (60-180 min) ([1]; A7702, total mass dose 0.016 mg/kg i.v.): 1.7 ng/mL
Mean ng/mL NBI-98782 Concentration during PET Scan (60-180 min) ([1]; A7702, total mass dose 0.13 mg/kg i.v.): 14.9 ng/mL
receptor occupancy at 0.04 mg/kg (VMAT2 [2]; iv, read-out: % Occ, animal A7701, Caudate, 0.04 mg/kg): 59.1%
receptor occupancy at 0.13 mg/kg (VMAT2 [2]; iv, read-out: % Occ, animal A7701, Caudate, 0.13 mg/kg): 67.9%
receptor occupancy at 0.5 mg/kg (VMAT2 [2]; iv, read-out: % Occ, animal A7701, Caudate, 0.5 mg/kg): 89.4%
receptor occupancy at 0.04 mg/kg (VMAT2 [2]; iv, read-out: % Occ, animal A7701, Putamen, 0.04 mg/kg): 55.2%
receptor occupancy at 0.13 mg/kg (VMAT2 [2]; iv, read-out: % Occ, animal A7701, Putamen, 0.13 mg/kg): 70.8%
receptor occupancy at 0.5 mg/kg (VMAT2 [2]; iv, read-out: % Occ, animal A7701, Putamen, 0.5 mg/kg): 89.6%
receptor occupancy at 0.016 mg/kg (VMAT2 [2]; iv, read-out: % Occ, animal A7702, Caudate, 0.016 mg/kg): 18.7%
receptor occupancy at 0.016 mg/kg (VMAT2 [2]; iv, read-out: % Occ, animal A7702, Putamen, 0.016 mg/kg): 18.3%
receptor occupancy at 0.13 mg/kg (VMAT2 [2]; iv, read-out: Occ, animal A7702, Caudate, 0.13 mg/kg): 77.5%
receptor occupancy at 0.13 mg/kg (VMAT2 [2]; iv, read-out: Occ, animal A7702, Putamen, 0.13 mg/kg): 79.1%
receptor occupancy at 0.04 mg/kg (VMAT2 [2]; read-out: Target Occupancy, Mean of Putamen and Caudate, A7701, total mass dose 0.04 mg/kg): 57%
receptor occupancy at 0.13 mg/kg (VMAT2 [2]; read-out: Target Occupancy, Mean of Putamen and Caudate, A7701, total mass dose 0.13 mg/kg): 69%
receptor occupancy at 0.5 mg/kg (VMAT2 [2]; read-out: Target Occupancy, Mean of Putamen and Caudate, A7701, total mass dose 0.5 mg/kg): 90%
receptor occupancy at 0.016 mg/kg (VMAT2 [2]; read-out: Target Occupancy, Mean of Putamen and Caudate, A7702, total mass dose 0.016 mg/kg): 19%
receptor occupancy at 0.13 mg/kg (VMAT2 [2]; read-out: Target Occupancy, Mean of Putamen and Caudate, A7702, total mass dose 0.13 mg/kg): 78%

Structure (SMILES): COc1cc2c(cc1OCCC[18F])CCN1C[C@@H](CC(C)C)[C@H](O)C[C@H]21 [[^18F]AV-133]
Test-retest for BPND (VMAT2 [3]): 9.4%

estimated VMAT2 occupancy maintained throughout each 24-hour period (VMAT2 [5]; doses clinically effective in tardive dyskinesia): ≥ 73%
receptor occupancy at 40 mg (VMAT2 [5]; valbenazine 40 mg once-daily, read-out: estimated target occupancy for Cave): ~80%
Structure (SMILES): COc1cc2c(cc1OC)[C@H]1C[C@@H](OC(=O)[C@@H](N)C(C)C)[C@H](CC(C)C)CN1CC2 [valbenazine, (S)-2-amino-3-methyl-butyric acid (2R, 3R,11bR)-3-isobutyl-9,10-dimethoxy-1,3,4,6,7,11b-hexahydro-2H-pyrido[2,1-a]isoquinolin-2-yl ester]
clinical observations (VMAT2 [4]): partially closed eyes (ptosis) (in all monkeys), decreased activity (in ⅔ monkeys), and salivation (in 1 monkey)
Adverse events [6]: consistent with the known safety and tolerability profile of valbenazine
increase in [^11C]-PHNO ΔBPND (synaptic dopamine): 21-44% and 20-40%
